Converted amounts (≈) assume the structure as drawn.
Tests used:
E. coli K12 PBP3 = molecular target: T1, E. coli K12 PBP3 (Escherichia coli, UniProt P0AD68); assay: biochemical; type: binding
T1 construct: made in house
Summary of the method: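 Fluorescence polarization (ex 490/em 520 nm) competition of inhibitors against Bocillin-FL at 0.1 μM, read up to 60 min. Final PBP levels: E. coli PBP3 1.5 μM; A. baumannii PBP2 2.5 μM, PBP3 0.2 μM in Tris pH 8.0/NaCl/glycerol/Tween 20; N. gonorrhoeae PBP2 […] in Hepes pH 8.0/NaCl/glycerol. EC50 = concentration halving PBP-bound Bocillin-FL.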

A. baumannii ATCC 19606 = assay: Broth microdilution MIC in CAMHB; type: cell-based; conditions: Acinetobacter baumannii, ATCC19606; MHB; read-out: Minimum Inhibitory Concentration, A. baumannii ATCC 19606
Summary of the method: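 Per CLSI broth microdilution, colonies were grown 3-5 h at 37° C in cation-adjusted Mueller Hinton broth, then diluted to a starting inoculum of 2-8×10^5 CFU/mL against 2-fold serial compound dilutions. Plates were incubated 16-20 h at 37° C, and MIC was read visually as the lowest concentration with no growth.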

[1] = test system: K. pneumoniae UMM producing SHV-5 and KPC-2; assay: Broth microdilution MIC in CAMHB; type: cell-based; conditions: Klebsiella pneumoniae, read-out: Minimum Inhibitory Concentration, K. pneumoniae UMM
Summary of the method: (§1)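 MIC, read by eye, is the lowest compound concentration giving no bacterial growth after 16-20 h at 37° C. Test compounds are serially diluted 2-fold in CAMHB and seeded with 2-8×10^5 CFU/mL of bacteria taken from a 3-5 h shaking culture, following CLSI methods.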

[2] = test system: K. pneumoniae 848844 producing SHV-11 and KPC-2; assay: Broth microdilution MIC in CAMHB; type: cell-based; conditions: Klebsiella pneumoniae, read-out: Minimum Inhibitory Concentration, K. pneumoniae 848844
Summary of the method: as §1

E. coli 901C = assay: Broth microdilution MIC in CAMHB; type: cell-based; conditions: Escherichia coli; E. coli 901C (hyper-permeable); MHB; read-out: Minimum Inhibitory Concentration, E. coli 901C
Summary of the method: as §1

P. aeruginosa ATCC 35151 = assay: Broth microdilution MIC in CAMHB; type: cell-based; conditions: Pseudomonas aeruginosa, ATCC35151; MHB; hyper-permeable strain; read-out: Minimum Inhibitory Concentration, P. aeruginosa ATCC 35151
Summary of the method: as §1

[3] = test system: K. pneumoniae SI-117 producing VIM-1; assay: Broth microdilution MIC in CAMHB; type: cell-based; conditions: Klebsiella pneumoniae, read-out: Minimum Inhibitory Concentration, K. pneumoniae SI-117
Summary of the method: as §1

E. coli AG100 = assay: Broth microdilution MIC in CAMHB; type: cell-based; conditions: Escherichia coli; E. coli AG100 (wild-type parent); MHB; read-out: Minimum Inhibitory Concentration, E. coli AG100
Summary of the method: as §1

T1 sequence (P0AD68 1-577): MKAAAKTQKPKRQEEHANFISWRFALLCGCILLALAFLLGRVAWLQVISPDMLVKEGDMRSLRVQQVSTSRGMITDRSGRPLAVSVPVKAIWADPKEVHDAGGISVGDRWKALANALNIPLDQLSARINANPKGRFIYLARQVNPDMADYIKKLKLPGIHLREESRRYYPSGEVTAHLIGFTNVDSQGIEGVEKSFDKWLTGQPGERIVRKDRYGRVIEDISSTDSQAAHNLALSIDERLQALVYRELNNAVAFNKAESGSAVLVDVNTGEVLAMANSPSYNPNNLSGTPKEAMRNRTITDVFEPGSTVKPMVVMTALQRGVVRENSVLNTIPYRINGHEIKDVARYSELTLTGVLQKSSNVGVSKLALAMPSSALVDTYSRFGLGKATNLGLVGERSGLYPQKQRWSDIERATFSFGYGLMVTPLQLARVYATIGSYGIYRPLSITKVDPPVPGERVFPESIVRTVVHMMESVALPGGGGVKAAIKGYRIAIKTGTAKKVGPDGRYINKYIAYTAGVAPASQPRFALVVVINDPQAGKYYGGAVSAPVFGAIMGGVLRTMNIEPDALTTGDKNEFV

Question: How did the EC50 (E. coli K12 PBP3) turn out when CCN1CCN(C(=O)NC(C(=O)N[C@H]2Cc3ccc(SCc4ccc(O)cc4)c(C(=O)O)c3OB2O)c2csc(N)n2)C(=O)C1=O (stereo partly drawn) [Example 55, (3R)-3-(2-(2-aminothiazol-4-yl)-2-(4-ethyl-2,3-dioxopiperazine-1-carboxamido)acetamido)-2-hydroxy-7-((4-hydroxybenzyl)thio)-3,4-dihydro-2H-benzo[e][1,2]oxaborinine-8-carboxylic acid] was run?
Answer: 30 to 500 µM

Question: And the MIC (A. baumannii ATCC 19606)?
Answer: > 128 µg/mL

Question: What about the MIC [1] of the same compound?
Answer: > 128 µg/mL

Question: What about the MIC [2] of the same compound?
Answer: > 128 µg/mL

Question: What about the MIC (E. coli 901C) of the same compound?
Answer: 0.5 to 1 µg/mL (≈ 0.748 to 1.5 µM)

Question: What about the MIC (P. aeruginosa ATCC 35151) of the same compound?
Answer: 0.5 to 1 µg/mL (≈ 0.748 to 1.5 µM)

Question: And the MIC [3]?
Answer: > 128 µg/mL

Question: What about the MIC (E. coli AG100) of the same compound?
Answer: > 128 µg/mL

Question: Which results are given for O=C(NC(C(=O)N[C@H]1Cc2ccc(F)c(C(=O)O)c2OB1O)c1ncc(O)cc1F)c1ccnc(F)c1 (stereo partly drawn) [Example 53, (3R)-7-fluoro-3-(2-(3-fluoro-5-hydroxypyridin-2-yl)-2-(2-fluoroisonicotinamido)acetamido)-2-hydroxy-3,4-dihydro-2H-benzo[e][1,2]oxaborinine-8-carboxylic acid]?
Answer: EC50 (E. coli K12 PBP3): 30 to 500 µM; MIC [1]: > 128 µg/mL; MIC [2]: > 128 µg/mL; MIC (E. coli 901C): 8 to 16 µg/mL (≈ 15.5 to 31 µM); MIC [3]: > 128 µg/mL; MIC (E. coli AG100): > 128 µg/mL

Question: Which EC50 (E. coli K12 PBP3) does the source give for O=C(O)c1c(F)ccc2c1OB(O)[C@@H](NC(=O)[C@H](NC(=O)N1CCNC1=O)c1c(F)cc(O)c(O)c1Cl)C2 (single isomer, unassigned) [Example 34] here?
Answer: < 30 µM

Question: For CS(=O)(=O)N1CCN(C(=O)NC(C(=O)N[C@H]2Cc3ccc(F)c(C(=O)O)c3OB2O)c2ccc(O)c(O)c2Cl)C1=O (stereo partly drawn) [Example 23, (3R)-3-(2-(2-chloro-3,4-dihydroxyphenyl)-2-(3-(methylsulfonyl)-2-oxoimidazolidine-1-carboxamido)acetamido)-7-fluoro-2-hydroxy-3,4-dihydro-2H-benzo[e][1,2]oxaborinine-8-carboxylic acid], which EC50 (E. coli K12 PBP3) is on record?
Answer: < 30 µM

Question: How did the EC50 (E. coli K12 PBP3) turn out when CCN1CCN(C(=O)NC(C(=O)N[C@H]2Cc3ccc(F)c(C(=O)O)c3OB2O)c2c(F)cc(O)c(O)c2F)C(=O)C1=O (stereo partly drawn) [Example 36, (3R)-3-(2-(2,6-difluoro-3,4-dihydroxyphenyl)-2-(4-ethyl-2,3-dioxopiperazine-1-carboxamido)acetamido)-7-fluoro-2-hydroxy-3,4-dihydro-2H-benzo[e][1,2]oxaborinine-8-carboxylic acid] was run?
Answer: < 30 µM

Question: O=C(O)c1c(F)ccc2c1OB(O)[C@@H](NC(=O)C(NC(=O)N1CCN(CCF)C(=O)C1=O)c1c(F)cc(O)c(O)c1F)C2 (stereo partly drawn) [Example 37, (3R)-3-(2-(2,6-difluoro-3,4-dihydroxyphenyl)-2-(4-(2-fluoroethyl)-2,3-dioxopiperazine-1-carboxamido)acetamido)-7-fluoro-2-hydroxy-3,4-dihydro-2H-benzo[e][1,2]oxaborinine-8-carboxylic acid] was tested. Which EC50 (E. coli K12 PBP3) did it give?
Answer: < 30 µM

Question: Which EC50 (E. coli K12 PBP3) does the source give for O=C(O)c1ccc(C(NC(=O)c2ccc(O)c(O)c2Cl)C(=O)N[C@H]2Cc3cccc(C(=O)O)c3OB2O)cc1F (stereo partly drawn) [Example 7, (3R)-3-(2-(4-carboxy-3-fluorophenyl)-2-(2-chloro-3,4-dihydroxybenzamido)acetamido)-2-hydroxy-3,4-dihydro-2H-benzo[e][1,2]oxaborinine-8-carboxylic acid] here?
Answer: 30 to 500 µM

Question: For O=C(NC(C(=O)N[C@H]1Cc2ccc(F)c(C(=O)O)c2OB1O)c1ncc(O)cc1F)c1c(F)cc(O)c(O)c1Cl (stereo partly drawn) [Example 10, (3R)-3-(2-(2-chloro-6-fluoro-3,4-dihydroxybenzamido)-2-(3-fluoro-5-hydroxypyridin-2-yl)acetamido)-7-fluoro-2-hydroxy-3,4-dihydro-2H-benzo[e][1,2]oxaborinine-8-carboxylic acid], which EC50 (E. coli K12 PBP3) is on record?
Answer: 30 to 500 µM

Question: How did the EC50 (E. coli K12 PBP3) turn out when NCCN1CCN(C(=O)N[C@@H](C(=O)N[C@H]2Cc3ccc(F)c(C(=O)O)c3OB2O)c2c(F)cc(O)c(O)c2F)C(=O)C1=O (single isomer, unassigned) [Example 40] was run?
Answer: < 30 µM

Question: How did the EC50 (E. coli K12 PBP3) turn out when CCN1CCN(C(=O)NC(C(=O)N[C@H]2Cc3ccc(F)c(C(=O)O)c3OB2O)c2cc(F)c(O)c(O)c2Cl)C(=O)C1=O (stereo partly drawn) [Example 42, (3R)-3-(2-(2-chloro-5-fluoro-3,4-dihydroxyphenyl)-2-(4-ethyl-2,3-dioxopiperazine-1-carboxamido)acetamido)-7-fluoro-2-hydroxy-3,4-dihydro-2H-benzo[e][1,2]oxaborinine-8-carboxylic acid] was run?
Answer: < 30 µM

Question: With CS(=O)(=O)N1CCN(C(=O)N[C@@H](C(=O)N[C@H]2Cc3ccc(F)c(C(=O)O)c3OB2O)c2c(F)cc(O)c(O)c2Cl)C1=O (single isomer, unassigned) [Example 35] as the compound, how does the EC50 (E. coli K12 PBP3) read?
Answer: < 30 µM

Question: CC(C)(C)[C@@H](NC(=O)N1CCN(CCNC(=O)c2c(F)cc(O)c(O)c2Cl)C(=O)C1=O)C(=O)N[C@H]1Cc2ccc(F)c(C(=O)O)c2OB1O [Example 80, (R)-3-((R)-2-(4-(2-(2-chloro-6-fluoro-3,4-dihydroxybenzamido)ethyl)-2,3-dioxopiperazine-1-carboxamido)-3,3-dimethylbutanamido)-7-fluoro-2-hydroxy-3,4-dihydro-2H-benzo[e][1,2]oxaborinine-8-carboxylic acid] was tested. Which EC50 (E. coli K12 PBP3) did it give?
Answer: < 30 µM

Question: For NCCCN1CCN(C(=O)N[C@@H](C(=O)N[C@H]2Cc3ccc(F)c(C(=O)O)c3OB2O)c2c(F)cc(O)c(O)c2F)C(=O)C1=O (single isomer, unassigned) [Example 41], which EC50 (E. coli K12 PBP3) is on record?
Answer: < 30 µM

Question: O=C(O)c1ccc(C(NC(=O)c2c(F)cc(O)c(O)c2Cl)C(=O)N[C@H]2Cc3ccc(F)c(C(=O)O)c3OB2O)cc1F (stereo partly drawn) [Example 71, (3R)-3-(2-(4-carboxy-3-fluorophenyl)-2-(2-chloro-6-fluoro-3,4-dihydroxybenzamido)acetamido)-7-fluoro-2-hydroxy-3,4-dihydro-2H-benzo[e][1,2]oxaborinine-8-carboxylic acid] was tested. Which EC50 (E. coli K12 PBP3) did it give?
Answer: > 500 µM

Question: How did the EC50 (E. coli K12 PBP3) turn out when O=C(O)c1c(F)ccc2c1OB(O)[C@@H](NC(=O)C(NC(=O)N1CCN(CCBr)C(=O)C1=O)c1c(F)cc(O)c(O)c1F)C2 (stereo partly drawn) [Example 38, (3R)-3-(2-(4-(2-bromoethyl)-2,3-dioxopiperazine-1-carboxamido)-2-(2,6-difluoro-3,4-dihydroxyphenyl)acetamido)-7-fluoro-2-hydroxy-3,4-dihydro-2H-benzo[e][1,2]oxaborinine-8-carboxylic acid] was run?
Answer: < 30 µM

Question: For O=C(Nc1ccc(O)c(O)c1Cl)NC(C(=O)N[C@H]1Cc2ccc(F)c(C(=O)O)c2OB1O)c1ncc(O)cc1F (stereo partly drawn) [Example 9, (3R)-3-(2-(3-(2-chloro-3,4-dihydroxyphenyl)ureido)-2-(3-fluoro-5-hydroxypyridin-2-yl)acetamido)-7-fluoro-2-hydroxy-3,4-dihydro-2H-benzo[e][1,2]oxaborinine-8-carboxylic acid], which EC50 (E. coli K12 PBP3) is on record?
Answer: 30 to 500 µM

Question: Which EC50 (E. coli K12 PBP3) does the source give for NCCCN1CCN(C(=O)N[C@H](C(=O)N[C@H]2Cc3ccc(F)c(C(=O)O)c3OB2O)c2ccc(O)c(O)c2Cl)C(=O)C1=O (single isomer, unassigned) [Example 28] here?
Answer: 30 to 500 µM

Question: NCCCN1CCN(C(=O)N[C@@H](C(=O)N[C@H]2Cc3ccc(F)c(C(=O)O)c3OB2O)c2c(F)cc(O)c(O)c2Cl)C(=O)C1=O (single isomer, unassigned) [Example 27] was tested. Which EC50 (E. coli K12 PBP3) did it give?
Answer: < 30 µM

Question: For O=C(NC(C(=O)N[C@H]1Cc2ccc(F)c(C(=O)O)c2OB1O)c1ncc(O)cc1F)c1ccc(O)c(O)c1Cl (stereo partly drawn) [Example 8, (3R)-3-(2-(2-chloro-3,4-dihydroxybenzamido)-2-(3-fluoro-5-hydroxypyridin-2-yl)acetamido)-7-fluoro-2-hydroxy-3,4-dihydro-2H-benzo[e][1,2]oxaborinine-8-carboxylic acid], which EC50 (E. coli K12 PBP3) is on record?
Answer: 30 to 500 µM

Question: For O=C(O)c1ccc(C(NC(=O)N2CCN(CCNC(=O)c3ccc(O)c(O)c3Cl)C(=O)C2=O)C(=O)N[C@H]2Cc3ccc(F)c(C(=O)O)c3OB2O)cc1F (stereo partly drawn) [Example 11, (3R)-3-(2-(4-carboxy-3-fluorophenyl)-2-(4-(2-(2-chloro-3,4-dihydroxybenzamido)ethyl)-2,3-dioxopiperazine-1-carboxamido)acetamido)-7-fluoro-2-hydroxy-3,4-dihydro-2H-benzo[e][1,2]oxaborinine-8-carboxylic acid], which EC50 (E. coli K12 PBP3) is on record?
Answer: < 30 µM

Question: And the MIC [1]?
Answer: 2 to 4 µg/mL (≈ 2.58 to 5.17 µM)

Question: What about the MIC [2] of the same compound?
Answer: > 128 µg/mL

Question: What about the MIC (E. coli 901C) of the same compound?
Answer: 0.5 to 1 µg/mL (≈ 0.646 to 1.29 µM)

Question: And the MIC [3]?
Answer: 32 to 64 µg/mL (≈ 41.4 to 82.7 µM)

Question: What about the MIC (E. coli AG100) of the same compound?
Answer: 32 to 64 µg/mL (≈ 41.4 to 82.7 µM)

Question: For NCCN1CCN(C(=O)N[C@@H](C(=O)N[C@H]2Cc3ccc(F)c(C(=O)O)c3OB2O)c2c(F)cc(O)c(O)c2Cl)C(=O)C1=O (single isomer, unassigned) [Example 26], which EC50 (E. coli K12 PBP3) is on record?
Answer: < 30 µM

Question: How did the EC50 (E. coli K12 PBP3) turn out when NC(C(=O)N[C@H]1Cc2ccc(F)c(C(=O)O)c2OB1O)c1c(F)cc(O)c(O)c1Cl (stereo partly drawn) [Example 25, (3R)-3-(2-amino-2-(2-chloro-6-fluoro-3,4-dihydroxyphenyl)acetamido)-7-fluoro-2-hydroxy-3,4-dihydro-2H-benzo[e][1,2]oxaborinine-8-carboxylic acid] was run?
Answer: 30 to 500 µM

Reference: patent US20230114728A1 (Venatorx Pharmaceuticals, Inc., priority 2019, published 2023)
